{"source": "patent US20170007727A1", "about": "“METHODS OF IMAGING WITH Ga-68 LABELED MOLECULES” (Immunomedics, Inc., priority 2015, published 2017)", "key": {"[1]": {"tested_on": "CEA-expressing LS174T tumors", "conditions": "mouse, in vivo", "method": "One or two hours after the injection of the radiolabeled peptide, PET/CT images were acquired and the biodistribution of the radiolabeled peptide was determined. Uptake in the LS174T tumor was compared with that in an s.c. CEA-negative SK-RC 52 tumor.\nExperiments were performed in male nude BALB/c mice (6-8 weeks old), weighing 20-25 grams. Mice received a subcutaneous injection with 0.2 mL of a suspension of 1×10^6 LS174T-cells, a CEA-expressing human colon carcinoma cell line (American Type Culture Collection, Rockville, Md., USA).\nThe percentage-injected dose per gram tissue (% ID/g) was calculated.\nLS174T tumors were pretargeted by injecting 1.0, 2.5, 5.0 or 10.0 nmol TF2 (160, 400, 800 or 1600 μg).\nIn the right flank an s.c. LS174T tumor was induced, while at the same time in the same mice 1×10^6 SK-RC 52 cells were inoculated in the left flank to induce a CEA-negative tumor.\nMice were fasted during 10 hours prior to the injection and anaesthetized and kept warm at 37° C. until euthanasia, 1 h postinjection."}, "AR42J tumors": {"tested_on": "AR42J tumors", "experiment": "Biodistribution in mice with s.c. AR42J tumors", "type": "in vivo, nude BALB/c mice", "conditions": "2 h p.i.", "description": "Male nude BALB/c mice (6-8 weeks) were injected subcutaneously in the right flank with 0.2 mL AR42J cell suspension of 10^7 cells/mL. Approximately two weeks after tumor cell inoculation when tumors were 5-8 mm in diameter, 370 kBq ^18F- or ^68Ga-labeled IMP 466 was administered intravenously (n=5). Separate groups (n=5) were injected with a 1,000-fold molar excess of unlabeled IMP 466. One group of three mice was injected with unchelated [Al^18F]. All mice were killed by CO2/O2 asphyxiation 2 h post-injection (p.i.). Organs of interest were collected, weighed and counted in a gamma counter. The percentage of the injected dose per gram tissue (% ID/g) was calculated for each tissue. The animal experiments were approved by the local animal welfare committee and performed according to national regulations."}, "[2]": {"experiment": "Stability of ^18F-labeled IMP 466 in human serum (RP-HPLC)", "type": "in vitro ADME", "conditions": "37° C., 4 h", "description": "Ten μL of the ^18F-labeled IMP 466 was incubated in 500 μL of freshly collected human serum and incubated for 4 h at 37° C. Acetonitrile was added and the mixture was vortexed followed by centrifugation at 1000×g for 5 min to precipitate serum proteins. The supernatant was analyzed on RP-HPLC as described above."}, "[3]": {"target": "somatostatin receptors on AR42J cells (rat)", "sequence (P30680 whole entry)": "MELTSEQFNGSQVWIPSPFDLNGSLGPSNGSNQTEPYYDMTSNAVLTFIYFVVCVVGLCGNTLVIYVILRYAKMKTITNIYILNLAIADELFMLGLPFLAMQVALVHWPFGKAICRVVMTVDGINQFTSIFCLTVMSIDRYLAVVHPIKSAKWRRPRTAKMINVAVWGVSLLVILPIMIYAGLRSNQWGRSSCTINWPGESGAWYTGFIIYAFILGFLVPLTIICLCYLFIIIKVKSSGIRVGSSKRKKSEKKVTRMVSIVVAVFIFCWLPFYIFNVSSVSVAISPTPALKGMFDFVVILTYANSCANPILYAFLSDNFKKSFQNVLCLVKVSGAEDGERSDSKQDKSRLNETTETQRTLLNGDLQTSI", "experiment": "apparent IC50, competitive binding on AR42J cells against 111In(DTPA-octreotide), RT 3 h"}, "RIIα dimers": {"target": "RIIα dimers (Homo sapiens, UniProt P13861)", "sequence (P13861 whole entry)": "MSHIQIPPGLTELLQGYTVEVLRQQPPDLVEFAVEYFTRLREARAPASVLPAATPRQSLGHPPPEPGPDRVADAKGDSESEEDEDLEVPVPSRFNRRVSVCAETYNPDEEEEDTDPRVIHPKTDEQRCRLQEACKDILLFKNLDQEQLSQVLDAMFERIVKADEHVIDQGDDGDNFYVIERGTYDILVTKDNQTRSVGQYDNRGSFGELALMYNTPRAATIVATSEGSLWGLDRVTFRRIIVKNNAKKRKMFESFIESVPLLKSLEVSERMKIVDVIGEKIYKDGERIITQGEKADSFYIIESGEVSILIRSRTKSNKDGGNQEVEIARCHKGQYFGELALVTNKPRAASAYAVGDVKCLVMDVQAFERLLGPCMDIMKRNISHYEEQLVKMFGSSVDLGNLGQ", "conditions": "read-out: affinity for RIIα dimers; cited from earlier work"}, "[4]": {"conditions": "complexed with ^177Lu or ^205/206Bi; cited from earlier work"}}, "note": "Numbered stars: 1 amine (or outer) side, 2 acyl side, 3 side chain; on linkers, the order of the positions; unused ones are H or OH. Square brackets hold non-standard residues; d marks the D form. Side chains are listed from the residue outwards. Peptide text beside a SMILES is read from it. * marks the point of attachment. DOTA = O=C(O)CN1CCN(CC(=O)O)CCN(CC(=O)*)CCN(CC(=O)O)CC1; NH(2-(imidazol-4-yl)ethyl) = c1ncc(CCN*)[nH]1; Suc = O=C(CCC(=O)[*:2])[*:1]", "data": [{"molecule": "NC(=O)[C@@H](CCCCNC(=O)CNC(=O)CCC(=O)NCCc1c[nH]cn1)NC(=O)[C@@H](CCC(=O)O)NC(=O)[C@@H](CCCCNC(=O)CNC(=O)CCC(=O)NCCc1c[nH]cn1)NC(=O)[C@@H](Cc1ccc(O)cc1)NC(=O)CN1CCN(CC(=O)O)CCN(CC(=O)O)CCN(CC(=O)O)CC1", "note": "[IMP 288, DOTA-D-Tyr-D-Lys(HSG)-D-Glu-D-Lys(HSG)-NH2] ({DOTA}-[dY][dK]([Gly-Suc-NH(2-(imidazol-4-yl)ethyl)])[dE][dK]([Gly-Suc-NH(2-(imidazol-4-yl)ethyl)])-NH2)", "values": [{"measurement": "time to maximum accretion in the tumor", "setting": "[1]", "value": "≤ 1", "unit": "h"}]}, {"molecule": "[18F][Al+2]", "note": "[[Al^18F]]", "values": [{"measurement": "uptake in the bone", "setting": "[1]", "value": "50.9±11.4", "unit": "% ID/g"}, {"measurement": "bone uptake", "setting": "AR42J tumors", "value": "36.9±5.0", "unit": "% ID/g"}]}, {"molecule": "C[C@@H](O)[C@@H]1NC(=O)[C@H](CCCCN)NC(=O)[C@@H](Cc2c[nH]c3ccccc23)NC(=O)[C@H](Cc2ccccc2)NC(=O)[C@@H](NC(=O)[C@@H](Cc2ccccc2)NC(=O)CN2CCN(CC(=O)O)CCN(CC(=O)O)CC2)CSSC[C@@H](C(=O)N[C@H](CO)[C@@H](C)O)NC1=O", "note": "[Al^18F(IMP 466)]", "values": [{"measurement": "release of ^18F after incubation in human serum", "setting": "[2]", "value": "did not show release of ^18F"}]}, {"molecule": "Al19F(IMP 466): NOTA-D-Phe-Cys-Phe-D-Trp-Lys-Thr-Cys-Throl complexed with aluminium fluoride (19F) (peptide)", "values": [{"measurement": "IC50", "setting": "[3]", "value": 3.6, "unit": "nM"}]}, {"molecule": "115In(DTPA-octreotide) (peptide)", "values": [{"measurement": "IC50", "setting": "[3]", "value": 6.3, "unit": "nM"}]}, {"molecule": "17 residue synthetic AD, SEQ ID NO: 8 QIEYLAKQIVDNAIQQA [AKAP-IS]", "values": [{"measurement": "Kd", "setting": "RIIα dimers", "value": 0.4, "unit": "nM"}]}, {"molecule": "69Ga(IMP 466): NOTA-D-Phe-Cys-Phe-D-Trp-Lys-Thr-Cys-Throl complexed with 69Ga (peptide)", "values": [{"measurement": "IC50", "setting": "[3]", "value": 13, "unit": "nM"}]}, {"molecule": "O=C(O)CN1CCN(CC(=O)O)CCN(CC(Cc2ccc([N+](=O)[O-])cc2)N(CC(=O)O)CC(=O)O)CC1", "note": "(stereo not drawn) [C-NETA]", "values": [{"measurement": "stability in serum", "setting": "[4]", "value": "up to 14 days"}]}]}
